Source: patent publication US20210069230A1, “SYNERGISTIC DRUG COMBINATIONS PREDICTED FROM GENOMIC FEATURES AND SINGLE-AGENT RESPONSE PROFILES” (THE BROAD INSTITUTE, INC., priority 2018, published 2021)
Like-named read-outs stand apart in the source and are kept apart here.

Legend:
[1] = system: BT12 and G402 cells overexpressing SLC7A11; experiment: Lentiviral ORF overexpression, compound sensitivity (CellTiter-Glo, GR); format: cell-based; conditions: 72 hours
Protocol: (§1) Cell lines were taken from viably frozen stocks of the same original provenance as for CTRP and DepMap data, with identity confirmed by SNP-based DNA fingerprinting as described previously (12, 13, 39). Cell lines were propagated using the same media and culture conditions as for CTRPv2.0 experiments. […] For live-cell imaging, cells were plated into clear-bottom plates (Corning) and imaged on an IncuCyte S3 throughout the course of the experiment. For CellTiter-Glo experiments, the initial viability of a subset of plated cells was established at the same time as compound addition using CellTiter-Glo as described previously (24). […] DMSO- and D0-normalized concentration-response curves were generated using four-parameter nonlinear regression using the drc package in R (40). Biphasic curves were also fit and prioritized relative to standard four-parameter curves where appropriate using the BIC (Bayesian information criteria) metric. […] General-purpose optimization (Nelder-Mean algorithm) was used for single-agent fits, and the “model” option was used to predict variance. Overall significance was assessed using the bootstrapped meanR test (n=1000 iterations), and per-concentration significance using maxR, as described by the package authors.
(§2) Infection and selection were carried out according to GPP Viral Infection protocols, followed by cell seeding in 384-well plates for compound treatment or harvesting for Western blotting as described above.
(§3) Parental cell lines were virally transduced with cDNAs that constitutively overexpressed BCL2L1, AIFM2, or MGLL (in G402 and CJM cells); ABCB1 or MGMT (in WM2664 cells); SLC7A11 (in BT12 and G402 cells); MCL1 (in HCC1500 cells); or IRS2 (in T47D cells) and subsequently drug sensitivity was measured. To account for potential differences in growth rates and to distinguish between cytostatic and cytotoxic drug responses, the normalized growth rate inhibition (GR) metric was used to assess cell viability (FIG. 3A) (18).

MEWO cell line = experiment: CRISPR-Cas9 knockout of AIFM2, response to compound; format: cell-based; conditions: four different sgRNAs
Protocol: (§4) Cas9 stably-infected HEC1A, MEWO, SUIT2, and WM2664 cells and sgRNAs (pXPR_BRD003 vector) targeting AIFM2, IRS2, MGLL, or control guides (non-cutting) were acquired from the GPP (FIG. 23). Cell line identities were confirmed to match parental cells using SNP fingerprinting. Virus was generated and infection carried out as described above. After puromycin selection (3 μg/mL for MEWO, 1.5 μg/mL for WM2664, 2 μg/mL for SUIT2 and HEC1A), cells were seeded in 384-well plates for compound treatment or harvested for Western blotting as described above.
(§5) As small-molecule inhibitors were not available for AIFM2 or IRS2, CRISPR-Cas9 was used to knock out these genes in proficient cell lines.

[2] = system: G402 and CJM cells overexpressing AIFM2; experiment: Lentiviral ORF overexpression, compound sensitivity (CellTiter-Glo, GR); format: cell-based; conditions: 72 hours
Protocol: as §1, §2, §3

[3] = system: WM2664 cells overexpressing MGMT; experiment: Lentiviral ORF overexpression, compound sensitivity (live-cell imaging, GR); format: cell-based; conditions: 120 hours
Protocol: Cell lines were taken from viably frozen stocks of the same original provenance as for CTRP and DepMap data, with identity confirmed by SNP-based DNA fingerprinting as described previously (12, 13, 39). Cell lines were propagated using the same media and culture conditions as for CTRPv2.0 experiments. […] For live-cell imaging, cells were plated into clear-bottom plates (Corning) and imaged on an IncuCyte S3 throughout the course of the experiment. For CellTiter-Glo experiments, the initial viability of a subset of plated cells was established at the same time as compound addition using CellTiter-Glo as described previously (24). […] DMSO- and D0-normalized concentration-response curves were generated using four-parameter nonlinear regression using the drc package in R (40). […] Overall significance was assessed using the bootstrapped meanR test (n=1000 iterations), and per-concentration significance using maxR, as described by the package authors. […]
Parental cell lines were virally transduced with cDNAs that constitutively overexpressed BCL2L1, AIFM2, or MGLL (in G402 and CJM cells); ABCB1 or MGMT (in WM2664 cells); SLC7A11 (in BT12 and G402 cells); MCL1 (in HCC1500 cells); or IRS2 (in T47D cells) and subsequently drug sensitivity was measured. […]

WM2664 cells = experiment: CRISPR-Cas9 knockdown of IRS2, response to compound; format: cell-based
Protocol: as §4, §5

[4] = system: WM2664 cells overexpressing ABCB1; experiment: Lentiviral ORF overexpression, compound sensitivity (CellTiter-Glo, GR); format: cell-based; conditions: 72 hours
Protocol: as §1, §2, §3

[5] = system: cell lines with high expression of the nominated protein; experiment: 72-hour co-treatment of index compounds with co-target inhibitors; format: cell-based; conditions: single agent
Protocol: GAPDH was used as a loading control.
as §1

[6] = biological target: Monoacylglycerol lipase (MAGL) (Mus musculus, UniProt O35678); conditions: dose of 16 mg/kg; cited from earlier work
242 cell lines in CTRPv1 = conditions: JZL184 alone; cited from earlier work
27 cell lines = experiment: GSK-J4 with or without JZL184 in 27 cell lines (CellTiter-Glo); format: cell-based; conditions: individual validation experiments or the pooled PRISM assay
Protocol: as §1

[7] = cited from earlier work
MGLL = MGLL (Homo sapiens, UniProt Q99685); experiment: Recombinant protein/mass spec assay of MGLL-mediated modification; format: biochemical
Source text: The GSK-J4-modifying impact of MGLL is examined further via a recombinant protein/mass spec assay.

[8] = system: G402, G402-MGLL and KMRC3 cells; experiment: Chromatin-modifying compounds and GSK-J4 analogues with MGLL overexpression or JZL184 co-treatment; format: cell-based; conditions: for effect of JZL184 co-treatment on sensitivity: cells expressing MGLL
Protocol: as §1
To assess whether MGLL could augment sensitivity to other inhibitors of chromatin modifying enzymes, a panel of other small molecules annotated to inhibit chromatin-related processes, targeting other KDM proteins, histone deacetylases (HDACs), and histone methyltransferases (e.g., EZH2, DOT1L) was tested. […] The effects of a number of GSK-J4 analogues (FIG. 7B) were also tested.

type IIA topoisomerases = conditions: cited from earlier work
KDM6 proteins = conditions: cited from earlier work
SIMA cell line = experiment: KX2-391 response versus ABCB1 expression and activity (elacridar co-treatment); format: cell-based
Source text: FIGS. 14A to 14S present supporting data for co-inhibition experiments across additional compounds and cellular models, further to FIG. 3 above. […] FIG. 14R presents dependency data from the DepMap portal (www.depmap.org) for BCL2L1 as a function of BCL2L1 expression (blue to red) and measured sensitivity (GR50) to the BCL2L1 inhibitor WEHI-539. FIG. 14S presents dependency data from the DepMap portal (www.depmap.org) for MCL1 as a function of […] (blue to red) and measured sensitivity (GR50) to the MCL1 inhibitor S63845.
The instant approach can therefore be applied and extended in a number of ways. First, it can be used to identify potential resistance mechanisms that may contribute to relapse in initially responsive settings. Second, it can be used to prioritize combinations for increased initial efficacy if the co-target biomarker is already present, or to de-prioritize single-agent treatment where it is likely to be less efficacious, particularly where alternatives might exist. For example, drug efflux pump expression (e.g., of ABCB1, encoding P-glycoprotein) has been observed as a clinical mechanism of resistance to various chemotherapeutics (30). ABCB1 inhibitors were discontinued from clinical development, largely due to challenges with selectivity and on-target toxicity (31). […]

[9] = system: HCC1500 cells overexpressing MCL1; experiment: Lentiviral ORF overexpression, compound sensitivity (CellTiter-Glo, GR); format: cell-based; conditions: 72 hours
Protocol: as §1, §2, §3

Sequence of Monoacylglycerol lipase (MAGL) (O35678 whole entry): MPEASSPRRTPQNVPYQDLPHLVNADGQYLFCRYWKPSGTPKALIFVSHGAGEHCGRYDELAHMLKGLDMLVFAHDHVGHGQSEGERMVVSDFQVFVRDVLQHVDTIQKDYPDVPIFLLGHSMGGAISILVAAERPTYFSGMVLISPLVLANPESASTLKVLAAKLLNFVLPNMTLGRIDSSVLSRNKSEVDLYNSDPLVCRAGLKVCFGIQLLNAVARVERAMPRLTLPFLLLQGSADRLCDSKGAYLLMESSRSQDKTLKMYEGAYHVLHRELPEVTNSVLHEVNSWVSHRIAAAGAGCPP
Sequence of MGLL (Q99685 whole entry): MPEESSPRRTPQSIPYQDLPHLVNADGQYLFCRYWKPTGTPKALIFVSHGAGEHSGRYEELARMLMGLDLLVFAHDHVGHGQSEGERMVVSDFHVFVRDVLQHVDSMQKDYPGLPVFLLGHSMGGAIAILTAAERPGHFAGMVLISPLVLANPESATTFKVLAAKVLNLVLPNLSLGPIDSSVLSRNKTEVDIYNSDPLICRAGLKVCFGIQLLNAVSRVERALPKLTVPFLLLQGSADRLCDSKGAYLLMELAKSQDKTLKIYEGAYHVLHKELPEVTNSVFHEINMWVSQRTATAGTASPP

CCOc1ccccc1-n1c(C(C)N2CCN(C(=O)COc3ccc(Cl)cc3)CC2)nc2ccccc2c1=O (stereo not drawn) [erastin]
resistance (GR50 shift) conferred by SLC7A11 overexpression [1]: 30 fold

Cc1onc(C(=O)N2CCN(C(c3ccc(Cl)cc3)c3ccc(Cl)cc3)CC2)c1[N+](=O)[O-] [ML210]
effect of targeting AIFM2 with sgRNAs on response (MEWO cell line): sensitization | resistance (GR50 shift) conferred by AIFM2 overexpression [2]: > 500 fold | resistance (GR50 shift) conferred by SLC7A11 overexpression [1]: 8 fold

O=NN(CCCl)C(=O)NCCCl [carmustine]
resistance (GR50 shift) conferred by MGMT overexpression [3]: 4 fold

CC(C)=CC[C@@H](O)C1=CC(=O)c2c(O)ccc(O)c2C1=O [shikonin]
resistance (GR50 shift) conferred by SLC7A11 overexpression [1]: 10 fold

CS(=O)(=O)N1CCN(Cc2cc3nc(-c4cccc5[nH]ncc45)nc(N4CCOCC4)c3s2)CC1 [pictilisib]
effect of knockdown of IRS2 on response (WM2664 cells): modest but consistent sensitization

CC(=O)O[C@H]1C(=O)[C@@]2(C)[C@H]([C@H](OC(=O)c3ccccc3)[C@]3(O)C[C@H](OC(=O)[C@H](O)[C@@H](NC(=O)c4ccccc4)c4ccccc4)C(C)=C1C3(C)C)[C@]1(OC(C)=O)CO[C@@H]1C[C@@H]2O [paclitaxel]
resistance (GR50 shift) conferred by ABCB1 overexpression [4]: 50 fold

O=C(Oc1ccc([N+](=O)[O-])cc1)N1CCC(C(O)(c2ccc3c(c2)OCO3)c2ccc3c(c2)OCO3)CC1 [JZL184, 4-nitrophenyl 4-(dibenzo[d][1,3]dioxol-5-yl(hydroxy)methyl)piperidine-1-carboxylate]
growth impact of combination partner on its own [5]: only modest growth impact | blockade of MAGL [6]: near-complete blockade | dose-dependent toxicity (242 cell lines in CTRPv1): did not demonstrate dose-dependent toxicity | effects of JZL184 alone (27 cell lines): very modest effects

OCCCNc1cc(N2CCc3ccccc3CC2)nc(-c2ccccn2)n1 [KDOBA67]
cellular permeability [7]: cell-permeable | MGLL-mediated modification (MGLL): no modification | toxicity relative to GSK-J4 ([8]; MGLL-deficient cell lines): equivalent toxicity | effect of JZL184 co-treatment on sensitivity [8]: could not be further sensitized | potency relative to GSK-J4 ([8]; resistant lines that expressed MGLL either endogenously or ectopically): more potent

CC[C@@H]1C(=O)N(C)c2cnc(Nc3ccc(C(=O)NC4CCN(C)CC4)cc3OC)nc2N1C1CCCC1 [BI-2536]
resistance (GR50 shift) conferred by ABCB1 overexpression [4]: 40 fold

O=C(O)CCNc1cc(N2CCc3ccccc3CC2)nc(-c2ccccn2)n1 [GSK-J1]
cellular permeability [7]: cell-impermeable | concentrations at which toxicity was shown [8]: > 20 µM | effect of MGLL overexpression or JZL184 co-treatment/inhibition on toxicity [8]: not affected

CCOC(=O)CCNc1cc(N2CCc3ccccc3CC2)nc(-c2cccnc2)n1 [GSK-J5]
effect of MGLL overexpression on toxicity [8]: reduced toxicity | potency relative to GSK-J4 [8]: much less potent | effect of JZL184 co-treatment on sensitivity [8]: sensitized by JZL184

O=C(O)c1cn(C2CC2)c2cc(N3CCNCC3)c(F)cc2c1=O [Ciprofloxacin]
targets prokaryotes more than eukaryotic topo IIs (type IIA topoisomerases): in excess of a thousandfold

O=C(O)CCNc1cc(N2CCc3ccccc3CC2)nc(-c2cccnc2)n1 [GSK-J2]
activity against KDM6 (KDM6 proteins): inactive | effect of MGLL overexpression or JZL184 co-treatment/inhibition on toxicity [8]: not affected | toxicity ([8]; at 80 μM): < 30%

CC(C)(C)c1cnc(CSc2cnc(NC(=O)C3CCNCC3)s2)o1 [SNS-032]
resistance (GR50 shift) conferred by ABCB1 overexpression [4]: 25 fold

O=C1C2CCN(CC2)C1(CO)CO [PRIMA-1]
resistance (GR50 shift) conferred by AIFM2 overexpression [2]: approximately threefold | resistance (GR50 shift) conferred by SLC7A11 overexpression [1]: 20 fold

O=C(Cc1ccc(-c2ccc(OCCN3CCOCC3)cc2)cn1)NCc1ccccc1 [KX2-391]
relation of response to ABCB1 (SIMA cell line): not correlated with ABCB1 expression or affected by the presence of active ABCB1 protein

CC1(C)CCC(c2ccc(Cl)cc2)=C(CN2CCN(c3ccc(C(=O)NS(=O)(=O)c4ccc(N[C@H](CCN5CCOCC5)CSc5ccccc5)c(S(=O)(=O)C(F)(F)F)c4)cc3)CC2)C1 [navitoclax]
resistance (GR50 shift) conferred by MCL1 overexpression [9]: 100 fold
